# Patent publication US8501977B2, “Platinum complex and pharmaceutical composition containing the same” (Unitech Co., Ltd., priority 2008, dated 2013)
# Assays:
# [1] = tested on: A549 (human lung cancer cell); test: MTS cell proliferation test, A549 (Embodiment 8); type: cell-based
# Description: (§1) Respectively, the S medicine test solution was prepared by dissolving the ((S,S,S) cis,cis-spiro[4,4]nonane-1,6-diamine)oxalatoplatinum(II) complex (compound 2; hereinafter, it is described as S medicine) into the dimethylsulfoxide (DMSO) with the concentration of 10 mg/ml and the R medicine test solution was prepared by dissolving the ((R,R,R)cis,cis-spiro[4,4]nonane-1,6-diamine) oxalatoplatinum(II) complex (compound 3; hereinafter, it is described as R medicine) into the dimethylsulfoxide (DMSO) with the concentration of 10 mg/ml.
# (§2) The test was performed by using A549 (human lung cancer cell), LU65A (human lung cancer cell), RERF-LC-MA (human lung cancer cell), LU99 (human lung cancer cell), H460 (human lung cancer cell), HCT116 (human colon cancer cell), HT-29 (human colon cancer cell), MKN-45 (human gastric cancer cell), MKN-1 (human gastric cancer cell), U937 (human lymphoma cell), KP-1N (human pancreas cancer cell) and B2452 (human mesotheliama cell) as the cancer cell.
# (§3) These cells were suspended in the each culture medium that the serum of 10% was added, and were dispensed in 96-well plate. And then, these were cultured in 5% CO2 at 37 degrees centigrade during a night. Next day, the S medicine test solution and the R medicine test solution were prepared in the culture medium to the various concentrations (5, 10, 20 μg/ml), and were dispensed into the plates that the cells were set preliminarily. And further, these were cultured in 5% CO2 at 37 degrees centigrade for three days.
# (§4) The cell proliferation after the medicine addition was measured on the 3rd day from the 1st day after the medicine addition by the MTS method (kit for cell proliferation test manufactured by Promega Company).
# (§5) The inhibition rate (%) of the cell proliferation was obtained from the measured MTS value by the following formula. Inhibition rate(%)=(1-MTS value of medicine addition group/MTS value of medicine non-addition group)×100
# (§6) Because the value which was obtained by the above-mentioned formula represents the inhibition rate of the cell proliferation, the higher the numerical value is, the higher the medicine effect is. It is desired that the one whose value is 50% or more has the medicine effect.
# [2] = tested on: LU65A (human lung cancer cell); test: MTS cell proliferation test, LU65A (Embodiment 8); type: cell-based
# Description: as §1, §2, §3, §4, §5, §6
# [3] = tested on: RERF-LC-MA (human lung cancer cell); test: MTS cell proliferation test, RERF-LC-MA (Embodiment 8); type: cell-based
# Description: as §1, §2, §3, §4, §5, §6
# [4] = tested on: LU99 (human lung cancer cell); test: MTS cell proliferation test, LU99 (Embodiment 8); type: cell-based
# Description: as §1, §2, §3, §4, §5, §6
# [5] = tested on: H460 (human lung cancer cell); test: MTS cell proliferation test, H460 (Embodiment 8); type: cell-based
# Description: as §1, §2, §3, §4, §5, §6
# [6] = tested on: HCT116 (human colon cancer cell); test: MTS cell proliferation test, HCT116 (Embodiment 8); type: cell-based
# Description: as §1, §2, §3, §4, §5, §6
# [7] = tested on: HT-29 (human colon cancer cell); test: MTS cell proliferation test, HT-29 (Embodiment 8); type: cell-based
# Description: as §1, §2, §3, §4, §5, §6
# [8] = tested on: MKN-45 (human gastric cancer cell); test: MTS cell proliferation test, MKN-45 (Embodiment 8); type: cell-based
# Description: as §1, §2, §3, §4, §5, §6
# [9] = tested on: MKN-1 (human gastric cancer cell); test: MTS cell proliferation test, MKN-1 (Embodiment 8); type: cell-based
# Description: as §1, §2, §3, §4, §5, §6
# [10] = tested on: U937 (human lymphoma cell); test: MTS cell proliferation test, U937 (Embodiment 8); type: cell-based
# Description: as §1, §2, §3, §4, §5, §6
# [11] = tested on: KP-1N (human pancreas cancer cell); test: MTS cell proliferation test, KP-1N (Embodiment 8); type: cell-based
# Description: as §1, §2, §3, §4, §5, §6
# [12] = tested on: H2452 cell (human mesothelicana cell); test: MTS cell proliferation test, H2452 (Embodiment 8); type: cell-based
# Description: as §1, §2, §3, §4, §5, §6
# tumor cells = test: MTS cell proliferation test, all cancer cells of Embodiment 8; type: cell-based, human; settings: summary of Table 2 in words
# Description: as §1
# as §2, with “cell. […]” for “cell.”
# as §4
# The inhibition rate (%) of the cell proliferation was obtained from the measured MTS value by the following formula. […]
# [13] = tested on: U937 (human lymphoma cell); test: MTS cell proliferation test, U937 (Embodiment 7); type: cell-based
# Description: The test solution was prepared by dissolving the (compound 1) into the dimethylsulfoxide ([…]) with the concentration of 8 mg/ml.
# The test was performed by using the U937 (human lymphoma cell) as the cancer cell and using the HEK293 (human fetus kidney cell) as the normal cell.
# These cells were suspended in the each culture medium that the serum of 10% was added, and were dispensed in 96-well plate. And then, these were cultured in 5% CO2 at 37 degrees centigrade during a night. Next day, the test solution was prepared in the culture medium to the various concentrations (0, 4, 8, 16 μg/ml), and was dispensed into the plate that the cells were set preliminarily. And further, these were cultured in 5% CO2 at 37 degrees centigrade for three days.
# The cell proliferation after the medicine addition was measured on the 3rd day from the 1st day after the medicine addition by the […] (Kit for cell proliferation test manufactured by Promega Company).
# as §5
# Because the value which was obtained by the above-mentioned formula represents the inhibition rate of the cell proliferation, the higher the numerionl value is, the higher the medicine effect is. It is deemed that the one whose value is 50% or more has the medicine effect.
SMILES,"Inhibition rate of cell proliferation after 3 days from medicine addition (%) ([1]; A549, 10 μg/ml)","Inhibition rate of cell proliferation after 3 days from medicine addition (%) ([1]; A549, 20 μg/ml)",Inhibition rate of cell proliferation after 3 days from medicine addition (%) ([2]; 10 μg/ml),Inhibition rate of cell proliferation after 3 days from medicine addition (%) ([2]; 20 μg/ml),Inhibition rate of cell proliferation after 3 days from medicine addition (%) ([3]; 10 μg/ml),Inhibition rate of cell proliferation after 3 days from medicine addition (%) ([3]; 20 μg/ml),"Inhibition rate of cell proliferation after 3 days from medicine addition (%) ([4]; LU99, 10 μg/ml)","Inhibition rate of cell proliferation after 3 days from medicine addition (%) ([4]; LU99, 20 μg/ml)","Inhibition rate of cell proliferation after 3 days from medicine addition (%) ([5]; H460, 10 μg/ml)","Inhibition rate of cell proliferation after 3 days from medicine addition (%) ([5]; H460, 20 μg/ml)","Inhibition rate of cell proliferation after 3 days from medicine addition (%) ([6]; HCT116, 10 μg/ml)","Inhibition rate of cell proliferation after 3 days from medicine addition (%) ([6]; HCT116, 20 μg/ml)","Inhibition rate of cell proliferation after 3 days from medicine addition (%) ([7]; HT-29, 10 μg/ml)","Inhibition rate of cell proliferation after 3 days from medicine addition (%) ([7]; HT-29, 20 μg/ml)","Inhibition rate of cell proliferation after 3 days from medicine addition (%) ([8]; MKN-45, 10 μg/ml)","Inhibition rate of cell proliferation after 3 days from medicine addition (%) ([8]; MKN-45, 20 μg/ml)","Inhibition rate of cell proliferation after 3 days from medicine addition (%) ([9]; MKN-1, 10 μg/ml)","Inhibition rate of cell proliferation after 3 days from medicine addition (%) ([9]; MKN-1, 20 μg/ml)","Inhibition rate of cell proliferation after 3 days from medicine addition (%) ([10]; U937, 10 μg/ml)","Inhibition rate of cell proliferation after 3 days from medicine addition (%) ([10]; U937, 20 μg/ml)",other results
"NC1CCCC12CCCC2N.O=C1[O][Pt][O]C1=O [S medicine, ((S,S,S) cis,cis-spiro[4,4]nonane-1,6-diamine)oxalatoplatinum(II) complex]",◯ (◯: 51~75%),⊚ (⊚: 76~100%),⊚ (⊚: 76~100%),⊚ (⊚: 76~100%),Δ (Δ: 26~50%),◯ (◯: 51~75%),⊚ (⊚: 76~100%),⊚ (⊚: 76~100%),◯ (◯: 51~75%),⊚ (⊚: 76~100%),◯ (◯: 51~75%),◯ (◯: 51~75%),Δ (Δ: 26~50%),◯ (◯: 51~75%),⊚ (⊚: 76~100%),⊚ (⊚: 76~100%),⊚ (⊚: 76~100%),⊚ (⊚: 76~100%),⊚ (⊚: 76~100%),⊚ (⊚: 76~100%),"Inhibition rate of cell proliferation after 3 days from medicine addition (%) ([1]; A549, 5 μg/ml): X (X: 0~25%); Inhibition rate of cell proliferation after 3 days from medicine addition (%) ([2]; 5 μg/ml): ◯ (◯: 51~75%); Inhibition rate of cell proliferation after 3 days from medicine addition (%) ([3]; 5 μg/ml): X (X: 0~25%); Inhibition rate of cell proliferation after 3 days from medicine addition (%) ([4]; LU99, 5 μg/ml): ◯ (◯: 51~75%); Inhibition rate of cell proliferation after 3 days from medicine addition (%) ([5]; H460, 5 μg/ml): Δ (Δ: 26~50%); Inhibition rate of cell proliferation after 3 days from medicine addition (%) ([6]; HCT116, 5 μg/ml): ◯ (◯: 51~75%); Inhibition rate of cell proliferation after 3 days from medicine addition (%) ([7]; HT-29, 5 μg/ml): Δ (Δ: 26~50%); Inhibition rate of cell proliferation after 3 days from medicine addition (%) ([8]; MKN-45, 5 μg/ml): ⊚ (⊚: 76~100%); Inhibition rate of cell proliferation after 3 days from medicine addition (%) ([9]; MKN-1, 5 μg/ml): ◯ (◯: 51~75%); Inhibition rate of cell proliferation after 3 days from medicine addition (%) ([10]; U937, 5 μg/ml): ⊚ (⊚: 76~100%); Inhibition rate of cell proliferation after 3 days from medicine addition (%) ([11]; 5 μg/ml): Δ (Δ: 26~50%); Inhibition rate of cell proliferation after 3 days from medicine addition (%) ([11]; 10 μg/ml): ◯ (◯: 51~75%); Inhibition rate of cell proliferation after 3 days from medicine addition (%) ([11]; 20 μg/ml): ⊚ (⊚: 76~100%); Inhibition rate of cell proliferation after 3 days from medicine addition (%) ([12]; H2452, 5 μg/ml): X (X: 0~25%); Inhibition rate of cell proliferation after 3 days from medicine addition (%) ([12]; H2452, 10 μg/ml): Δ (Δ: 26~50%); Inhibition rate of cell proliferation after 3 days from medicine addition (%) ([12]; H2452, 20 μg/ml): Δ (Δ: 26~50%); medicine effect for the many tumor cells (tumor cells): high medicine effect compared with the oxaliplatin"
"O=C1[O][Pt]2([NH][C@@H]3CCCC[C@H]3[NH]2)[O]C1=O [oxaliplatin, reference compound]",X (X: 0~25%),Δ (Δ: 26~50%),Δ (Δ: 26~50%),◯ (◯: 51~75%),X (X: 0~25%),X (X: 0~25%),◯ (◯: 51~75%),◯ (◯: 51~75%),Δ (Δ: 26~50%),Δ (Δ: 26~50%),◯ (◯: 51~75%),◯ (◯: 51~75%),Δ (Δ: 26~50%),Δ (Δ: 26~50%),⊚ (⊚: 76~100%),⊚ (⊚: 76~100%),◯ (◯: 51~75%),⊚ (⊚: 76~100%),⊚ (⊚: 76~100%),⊚ (⊚: 76~100%),"Inhibition rate of cell proliferation for 1st to 3rd day from medicine addition (%) ([13]; U937, 4 μg/ml, 1st day): −5%; Inhibition rate of cell proliferation for 1st to 3rd day from medicine addition (%) ([13]; U937, 4 μg/ml, 2nd day): −26%; Inhibition rate of cell proliferation for 1st to 3rd day from medicine addition (%) ([13]; U937, 4 μg/ml, 3rd day): 12%; Inhibition rate of cell proliferation for 1st to 3rd day from medicine addition (%) ([13]; U937, 8 μg/ml, 1st day): −1%; Inhibition rate of cell proliferation for 1st to 3rd day from medicine addition (%) ([13]; U937, 8 μg/ml, 2nd day): −5%; Inhibition rate of cell proliferation for 1st to 3rd day from medicine addition (%) ([13]; U937, 8 μg/ml, 3rd day): 37%; Inhibition rate of cell proliferation for 1st to 3rd day from medicine addition (%) ([13]; U937, 16 μg/ml, 1st day): 0%; Inhibition rate of cell proliferation for 1st to 3rd day from medicine addition (%) ([13]; U937, 16 μg/ml, 2nd day): 30%; Inhibition rate of cell proliferation for 1st to 3rd day from medicine addition (%) ([13]; U937, 16 μg/ml, 3rd day): 73%; medicine effect in the cancer cell (U937) ([13]; U937, summary of Table 1 in words): medicine effect was also recognized; Inhibition rate of cell proliferation after 3 days from medicine addition (%) ([11]; 10 μg/ml): Δ (Δ: 26~50%); Inhibition rate of cell proliferation after 3 days from medicine addition (%) ([11]; 20 μg/ml): ◯ (◯: 51~75%); Inhibition rate of cell proliferation after 3 days from medicine addition (%) ([12]; H2452, 10 μg/ml): Δ (Δ: 26~50%); Inhibition rate of cell proliferation after 3 days from medicine addition (%) ([12]; H2452, 20 μg/ml): Δ (Δ: 26~50%)"
